According to patent US20230416168A1 (EUROCHEM ANTWERPEN, priority 2020, published 2023):

Experiments:
Nitrosospira multiformis = test: Nitrification inhibition assay with Nitrosospira multiformis (nitrite level after 24 h); format: cell-based; conditions: for IC50 / activity at 100 µM: Nitrosospira multiformis; for IC50: 8-point dose response, 2 to 100 μM, read-out: IC50; for activity at 100 µM: tested concentration 100 μM, 24 h, normalized to DMSO (100%) and 100 μM DMP (0%), read-out: Nitrification at tested concentration (0 = maximum activity)
Procedure, shortened: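 Dense N. multiformis cultures (5× concentrated in 181-medium) with ammonium were incubated 24 h at 30° C with shaking, then nitrite measured by Griess reagent at 540 nm. Relative nitrification normalised per plate to DMSO and 100 μM DMP controls; IC50 from logistic fit of 8-point doses 2-100 μM.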

Merelbeke soil = test: In soil nitrification inhibition assay, Merelbeke soil; conditions: for inhibition of ammonium consumption in soil, in words: 50 μM, one week of treatment; for inhibition at 50 µM: soil, 168 h, 7 days, read-out: % Nitrification inhibition in soil (7 days of incubation, Merelbeke soil)
Protocol: Top layer (0 to 10 cm) soil samples were collected from different fields in Belgium (Merelbeke and Moorslede). Vegetation on the field trial was removed and samples were taken from different plots. All soil samples were mixed and sieved (mesh size 2.8 mm) to filter large debris and homogenize soil. The soil was stored at 5° C. in plastic containers covered with Saran foil to prevent changes in microbial community composition and to maintain the original soil water content. Soil water content was determined by drying 20 g soil for 48 h in a 60° C. oven and measuring weight before and after drying. Based on the soil water content (±20%), compound solutions were prepared so that addition of 200 μl compound and 200 μl NH4Cl solution would result in a final compound concentration of 50 μM and a final NH4^+ concentration of 10 mM. Per treatment, 5 small pots were filled with 20 g soil. Next, the soil was treated first with the respective compound solution and then with the NH4Cl solution. Per tray, positive (50 μM DMP) and negative controls (DMSO) were included. Pots were incubated at 21° C. (6 a.m. to 10 p.m. light) for 7 days. Demineralized water was added to the soil every 2 to 3 days to a soil weight of 20 g. In the end, each sample of 20 g soil was dissolved in 100 ml 1M KCl and shaken for 1 hour, followed by filtration through Whatmann® paper. The filtrate was used to measure pH, NH4^+ and NO3− concentrations. The nitrification inhibitors were applied in a nitrification inhibition assay using agricultural soil. In practice, ammonium with or without the new nitrification inhibitors was added to soil from a field in Merelbeke (Belgium). The ammonium level was measured at the start of the experiment and at the end of the experiment, after one week of incubation. A nitrification inhibition percentage was calculated by comparing the reduction in ammonium level with the nitrification inhibitor to the reduction in ammonium without the nitrification inhibitor. Ammonium was added to soil with a high nitrification activity and treated with the nitrification inhibitors (final concentration of 50 μM). […] This validates that the new nitrification inhibitors are effectively inhibiting ammonia oxidation by soil communities.

IC50 (Nitrosospira multiformis)	SMILES	nitrification inhibition, in words (Nitrosospira multiformis)	activity at 100 µM (Nitrosospira multiformis)	inhibition of ammonium consumption in soil, in words (Merelbeke soil)	inhibition at 50 µM (Merelbeke soil)	Average nitrification [%] in Nitrosospira multiformis (Nitrosospira multiformis; 2 μM)	Average nitrification [%] in Nitrosospira multiformis (Nitrosospira multiformis; 3.5 μM)	Average nitrification [%] in Nitrosospira multiformis (Nitrosospira multiformis; 6 μM)	Average nitrification [%] in Nitrosospira multiformis (Nitrosospira multiformis; 11 μM)	Average nitrification [%] in Nitrosospira multiformis (Nitrosospira multiformis; 19 μM)	Average nitrification [%] in Nitrosospira multiformis (Nitrosospira multiformis; 33 μM)	Average nitrification [%] in Nitrosospira multiformis (Nitrosospira multiformis; 57 μM)	Average nitrification [%] in Nitrosospira multiformis (Nitrosospira multiformis; 100 μM)
< 0.8 µM	CN(Cc1c(Cl)nc2sccn12)CN1CCSC1=S [Example 1, 3-[[(6-chloroimidazo[2,1-b][1,3]thiazol-5-yl)methyl-methylamino]methyl]-1,3-thiazolidine-2-thione]	strongly inhibited nitrification	0%	strongly inhibited the ammonium consumption	60%								
< 3.5 µM	CN(Cc1nc2ccccc2s1)CN1CCOC1=S [Example 5, 3-[[1,3-benzothiazol-2-ylmethyl(methyl)amino]methyl]-1,3-oxazolidine-2-thione]	strong nitrification inhibition	0%	significant inhibition	14%								
< 10 µM	S=C1NCCO1 [Example 7]		0%										
1.3 µM	S=c1[nH]ccs1 [Example 24, 3H-1,3-thiazole-2-thione]	very strong effect	0%			25%	4%	0%	0%	0%	0%	0%	0%
140 µM	CSc1nccs1 [Example 25, 2-(methylsulfanyI)-1,3-thiazole]		53%			81%	80%	80%	76%	74%	67%	62%	53%
